Results: patent US9975876B2, “2-pyridyloxy-3-ester-4-ether orexin receptor antagonists” (MERCK SHARP & DOHME CORP., priority 2013, dated 2018)

Tests used:
human orexin-2 receptor = human orexin-2 receptor (Homo sapiens (Human), UniProt O43614); test: FLIPR Ca2+ flux assay, orexin-2 receptor antagonism; format: cell-based; settings: CHO cells; agonist 70 pM Ala-6,12 human orexin-A; read-out: hOX2R FLIPR IC50
Method: In a typical experiment the OX1 and OX2 receptor antagonistic activity of the compounds of the present invention was determined in accordance with the following experimental method. For intracellular calcium measurements, Chinese hamster ovary (CHO) cells expressing the rat orexin-1 receptor or the human orexin-2 receptor, are grown in Iscove's modified DMEM containing 2 mM L-glutamine, […], 1% hypoxanthine-thymidine supplement, 100 U/ml penicillin, 100 μg/ml streptomycin and 10% heat-inactivated fetal calf serum (FCS). The cells are seeded at 20,000 cells/well into Becton-Dickinson black 384-well clear bottom sterile plates coated with poly-D-lysine. All reagents were from GIBCO-Invitrogen Corp. The seeded plates are incubated overnight at 37° C. and 5% CO2. Ala-6,12 human orexin-A as the agonist is prepared as a 1 mM stock solution in 1% bovine serum albumin (BSA) and diluted in assay buffer (HBSS containing 20 mM HEPES, 0.1% BSA and 2.5 mM probenecid, pH7.4) for use in the assay at a final concentration of 70 pM. Test compounds are prepared as 10 mM stock solution in DMSO, then diluted in 384-well plates, first in DMSO, then assay buffer. On the day of the assay, cells are washed 3 times with 100 μl assay buffer and then incubated for 60 min (37° C., 5% CO2) in 60 μl assay buffer containing 1 μM Fluo-4AM ester, 0.02% pluronic acid, and 1% BSA. The dye loading solution is then aspirated and cells are washed 3 times with 100 μl assay buffer. 30 μl of that same buffer is left in each well. Within the Fluorescent Imaging Plate Reader (FLIPR, Molecular Devices), test compounds are added to the plate in a volume of 25 μl, incubated for 5 min and finally 25 μl of agonist is added. Fluorescence is measured for each well at 1 second intervals for 5 minutes and the height of each fluorescence peak is compared to the height of the fluorescence peak induced by 70 pM Ala-6,12 orexin-A with buffer in place of antagonist. […] The intrinsic orexin receptor antagonist activity of a compound which may be used in the present invention may be determined by these assays.

hOX1R = hOX1R (Homo sapiens, UniProt O43613); test: FLIPR Ca2+ flux assay, orexin-1 receptor antagonism; format: cell-based; settings: CHO cells; agonist 70 pM Ala-6,12 human orexin-A

Chain of human orexin-2 receptor (O43614 whole entry): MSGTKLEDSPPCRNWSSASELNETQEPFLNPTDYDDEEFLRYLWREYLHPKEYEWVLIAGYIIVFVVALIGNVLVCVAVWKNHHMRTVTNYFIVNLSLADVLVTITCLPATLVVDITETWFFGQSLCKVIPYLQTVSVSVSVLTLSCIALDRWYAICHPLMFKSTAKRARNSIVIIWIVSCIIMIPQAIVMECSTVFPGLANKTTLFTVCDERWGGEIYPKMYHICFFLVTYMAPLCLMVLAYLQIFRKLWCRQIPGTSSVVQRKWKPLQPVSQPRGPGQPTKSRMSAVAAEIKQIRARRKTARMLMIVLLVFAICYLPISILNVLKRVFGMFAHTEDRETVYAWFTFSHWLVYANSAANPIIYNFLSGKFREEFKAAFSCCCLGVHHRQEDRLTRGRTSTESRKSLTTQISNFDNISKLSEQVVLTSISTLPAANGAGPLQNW

For COC(=O)c1c(OC)ccnc1O[C@@H]1CC[C@@H](C)N(C(=O)c2cc(F)ccc2-n2nccn2)C1 [Example 7, methyl 2-{[(3R,6R)-1-{[5-fluoro-2-(2H-1,2,3-triazol-2-yl)phenyl]carbonyl}-6-methylpiperidin-3-yl]oxy}-4-methoxypyridine-3-carboxylate], the IC50 (human orexin-2 receptor) was 27.6 nM and the IC50 (hOX1R) was 1460 nM.
COC(=O)c1c(OC)ccnc1O[C@@H]1CC[C@@H](C)N(C(=O)c2c(F)cccc2-c2nc(C)no2)C1 [Example 12, methyl 2-{[(3R,6R)-1-{[2-fluoro-6-(3-methyl-1,2,4-oxadiazol-5-yl)phenyl]carbonyl}-6-methylpiperidin-3-yl]oxy}-4-methoxypyridine-3-carboxylate] was tested, and the IC50 (hOX1R) was 4470 nM.
Compound COC(=O)c1c(OC)ccnc1O[C@@H]1CC[C@@H](C)N(C(=O)c2ccccc2-n2ncnn2)C1 [Example 23, Methyl 4-methoxy-2-{[(3R,6R)-6-methyl-1-{[2-(2H-tetrazol-2-yl)phenyl]carbonyl}piperidin-3-yl]oxy}pyridine-3-carboxylate] has an IC50 (human orexin-2 receptor) of 27.7 nM and an IC50 (hOX1R) of 2140 nM.
COC(=O)c1c(OC)ccnc1O[C@@H]1CC[C@@H](C)N(C(=O)c2ccc(F)cc2-c2nc(C)no2)C1 [Example 5, methyl 2-{[(3R,6R)-1-{[4-fluoro-2-(3-methyl-1,2,4-oxadiazol-5-yl)phenyl]carbonyl}-6-methylpiperidin-3-yl]oxy}-4-methoxypyridine-3-carboxylate] showed an IC50 (human orexin-2 receptor) of 52 nM and an IC50 (hOX1R) of 3100 nM.
COC(=O)c1c(OC)cccc1O[C@@H]1CC[C@@H](C)N(C(=O)c2ccsc2-c2ncccn2)C1 [Example 34, methyl 2-methoxy-6-({(3R,6R)-6-methyl-1-[(2-pyrimidin-2-ylthiophen-3-yl)carbonyl]piperidin-3-yl}oxy)benzoate] gave an IC50 (human orexin-2 receptor) of 42 nM and an IC50 (hOX1R) greater than 10000 nM.
Compound COC(=O)c1c(OC)ccnc1O[C@@H]1CC[C@@H](C)N(C(=O)c2cccc(C)c2-n2nccn2)C1 [Example 14, methyl 4-methoxy-2-{[(3R,6R)-6-methyl-1-{[3-methyl-2-(2H-1,2,3-triazol-2-yl)phenyl]carbonyl}piperidin-3-yl]oxy}pyridine-3-carboxylate] has an IC50 (human orexin-2 receptor) of 37.9 nM and an IC50 (hOX1R) of 777 nM.
For CCOC(=O)c1c(OC)ccnc1O[C@@H]1CC[C@@H](C)N(C(=O)c2ccccc2-n2nccn2)C1 [Example 25, ethyl 4-methoxy-2-{[(3R,6R)-6-methyl-1-{[2-(2H-1,2,3-triazol-2-yl)phenyl]carbonyl}piperidin-3-yl]oxy}pyridine-3-carboxylate], the IC50 (human orexin-2 receptor) was 19.3 nM and the IC50 (hOX1R) was 814 nM.
COC(=O)c1c(OC)ccnc1O[C@@H]1CC[C@@H](C)N(C(=O)c2cccc(F)c2-n2nccn2)C1 [Example 2, Methyl 2-{[(3R,6R)-1-{[3-fluoro-2-(2H-1,2,3-triazol-2-yl)phenyl]carbonyl}-6-methylpiperidin-3-yl]oxy}-4-methoxypyridine-3-carboxylate] showed an IC50 (human orexin-2 receptor) of 37 nM and an IC50 (hOX1R) of 2900 nM.
In the case of COC(=O)c1c(OC)ccnc1O[C@@H]1CC[C@@H](C)N(C(=O)c2ccc(F)cc2-c2ncccn2)C1 [Example 21, methyl 2-({(3R,6R)-1-[(4-fluoro-2-pyrimidin-2-ylphenyl)carbonyl]-6-methylpiperidin-3-yl}oxy)-4-methoxypyridine-3-carboxylate], the IC50 (human orexin-2 receptor) is reported as 71.2 nM and the IC50 (hOX1R) is reported as 1460 nM.
In the case of CCOc1ccnc(O[C@@H]2CC[C@@H](C)N(C(=O)c3ccccc3-n3nccn3)C2)c1C(=O)OC [Example 27, Methyl 4-ethoxy-2-{[(3R,6R)-6-methyl-1-{[2-(2H-1,2,3-triazol-2-yl)phenyl]carbonyl}piperidin-3-yl]oxy}pyridine-3-carboxylate], the IC50 (human orexin-2 receptor) is reported as 167 nM and the IC50 (hOX1R) is reported as 7000 nM.
Work on COC(=O)c1c(OC)ccnc1O[C@@H]1CC[C@@H](C)N(C(=O)c2cccc(F)c2-c2ncccn2)C1 [Example 22, methyl 2-({(3R,6R)-1-[(3-fluoro-2-pyrimidin-2-ylphenyl)carbonyl]-6-methylpiperidin-3-yl}oxy)-4-methoxypyridine-3-carboxylate] yielded an IC50 (human orexin-2 receptor) of 117 nM and an IC50 (hOX1R) of 3780 nM.
